In US20230374035A1, “RAS INHIBITORS” (Revolution Medicines, Inc., priority 2019, published 2023) one finds IC50 data, which are given here for 26 compounds.

Each structure is given as a SMILES string. pIC50: −log10 of the molar value. A value given as a limit tells only on which side of the number the result lay.

For one experiment, the system named is NCI-H358 (K-Ras G12C). Nature of the experiment: CellTiter-Glo Cell Viability Assay. It counts as cell-based. The conditions noted are these: Homo sapiens, NCI-H358, 120 h; H358, 5-day treatment. On the procedure: Determination of Cell Viability in RAS Mutant Cancer Cell Lines
Protocol: CellTiter-Glo® Cell Viability Assay
Note—The following protocol describes a procedure for monitoring cell viability of K-Ras mutant cancer cell lines in response to a compound of the invention. Other RAS isoforms may be employed, though the number of cells to be seeded will vary based on cell line used.
Test compounds (132.5 nl) were directly dispensed into the assay plates containing cells. […] On day 5, assay plates and their contents were equilibrated to room temperature for approximately 30 minutes. […] Luminescence was measured using the PerkinElmer Enspire. Data were normalized by the following: (Sample signal/Avg. DMSO)*100. The data were fit using a four-parameter logistic fit.

A further experiment concerns the target NRAS Q61K (Homo sapiens, UniProt P01111+P62937, Q61K). The experiment is described as follows: Disruption of BRAF RBD interaction with Ras (FRET / MOA assay). It counts as biochemical. Particulars: read-out: NRAS Q61K FRET data IC50. On the procedure: (§1) Compound is present in plate wells as a 10-point 3-fold dilution series starting at a final concentration of 30 μM. […] Compounds that facilitate disruption of a Ras:RAF complex are identified as those eliciting a decrease in the TR-FRET ratio relative to DMSO control wells.
(§2) Note—The following protocol describes a procedure for monitoring disruption of K-Ras G12C (GMP-PNP) binding to BRAF^RBD by a compound of the invention. This protocol may also be executed substituting other Ras proteins or nucleotides.
(§3) The purpose of this biochemical assay was to measure the ability of test compounds to facilitate ternary complex formation between a nucleotide-loaded K-Ras isoform and Cyclophilin A; the resulting ternary complex disrupts binding to a BRAF^RBD construct, inhibiting K-Ras signaling through a RAF effector. Data is reported as IC50 values.
(§4) Compound was present in plate wells as a 10-point 3-fold dilution series starting at a final concentration of 30 μM. […] Compounds that facilitate disruption of a K-Ras:RAF complex were identified as those eliciting a decrease in the TR-FRET ratio relative to DMSO control wells.

Another experiment addresses NRAS Q61R (Homo sapiens, UniProt P01111+P62937, Q61R). Described as above. The format is biochemical. The conditions noted are these: read-out: NRAS Q61R FRET data IC50. On the procedure: as §1, §2, §3, §4

NRAS Q61K, sequence (P01111 whole entry Q61K): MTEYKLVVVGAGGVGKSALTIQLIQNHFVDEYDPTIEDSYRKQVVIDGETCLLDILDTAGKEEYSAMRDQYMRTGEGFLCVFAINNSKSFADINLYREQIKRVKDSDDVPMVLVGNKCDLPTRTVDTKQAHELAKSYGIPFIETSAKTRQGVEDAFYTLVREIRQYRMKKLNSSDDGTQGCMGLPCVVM
NRAS Q61K, sequence (P62937 whole entry): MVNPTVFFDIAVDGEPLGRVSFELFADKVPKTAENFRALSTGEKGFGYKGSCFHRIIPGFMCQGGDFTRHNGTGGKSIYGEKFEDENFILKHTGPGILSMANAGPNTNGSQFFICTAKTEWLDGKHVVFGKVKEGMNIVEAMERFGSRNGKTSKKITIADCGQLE
NRAS Q61R, sequence (P01111 whole entry Q61R): as the sequence (P01111 whole entry Q61K) above, with K61R counted along it
NRAS Q61R, sequence (P62937 whole entry): as the sequence (P62937 whole entry) above

For `CCn1c(-c2cccnc2[C@H](C)OC)c2c3cc(ccc31)-c1csc(n1)C[C@H](NC(=O)[C@H](C(C)C)N(C)C(=O)N1CC(C3COC3)C1)C(=O)N1CCC[C@H](N1)C(=O)OCC(C)(C)C2` (atropisomer, axis not shown) [Compound A298], in the experiment on NCI-H358 (K-Ras G12C), the pIC50 is above 8.00.
`CCn1c(-c2cccnc2[C@H](C)OC)c2c3cc(ccc31)-c1csc(n1)C[C@H](NC(=O)[C@H](C(C)C)N(C)C(=O)N1CCO[C@H](C)C1)C(=O)N1CCC[C@H](N1)C(=O)OCC(C)(C)C2` (atropisomer, axis not shown) [Compound A310]: the pIC50 on NRAS Q61K is 7.00 to 8.00; with NCI-H358 (K-Ras G12C) it was above 8.00.
Take `CCn1c(-c2cccnc2[C@H](C)OC)c2c3cc(ccc31)-c1csc(n1)C[C@H](NC(=O)[C@H](C(C)C)N(C)C(=O)N1C[C@H]3COC[C@H]3C1)C(=O)N1CCC[C@H](N1)C(=O)OCC(C)(C)C2` (atropisomer, axis not shown) [Compound A312]: the pIC50 on NRAS Q61K and on NRAS Q61R was 7.00 to 8.00 throughout.
The compound `CCn1c(-c2cccnc2[C@H](C)OC)c2c3cc(ccc31)-c1csc(n1)C[C@H](NC(=O)[C@H](C(C)C)N(C)C(=O)N1CC(N3CCOCC3)C1)C(=O)N1CCC[C@H](N1)C(=O)OCC(C)(C)C2` (atropisomer, axis not shown) [Compound A338] gave a pIC50 with NCI-H358 (K-Ras G12C) above 8.00.
In the case of `CCn1c(-c2cccnc2[C@H](C)OC)c2c3cc(ccc31)-c1csc(n1)C[C@H](NC(=O)[C@H](C(C)C)N(C)C(=O)N1CC(O)C1)C(=O)N1CCC[C@H](N1)C(=O)OCC(C)(C)C2` (atropisomer, axis not shown) [Compound A358], the results for the pIC50 at NRAS Q61K and with NCI-H358 (K-Ras G12C) were 7.00 to 8.00 and above 8.00, respectively.
`CCn1c(-c2cccnc2[C@H](C)OC)c2c3cc(ccc31)-c1cc(O)cc(c1)C[C@H](NC(=O)[C@H](C(C)C)N(C)C(=O)[C@@H]1CCN(C(=O)OC)C1)C(=O)N1CCC[C@H](N1)C(=O)OCC(C)(C)C2` (atropisomer, axis not shown) [Compound A365] had a pIC50 in the experiment on NCI-H358 (K-Ras G12C) above 8.00.
Consider `CCn1c(-c2cc(N3CCN(C)CC3)cnc2[C@H](C)OC)c2c3cc(ccc31)-c1csc(n1)C[C@H](NC(=O)[C@H](C(C)C)N(C)C(=O)[C@H]1CCCS1(=O)=O)C(=O)N1CCC[C@H](N1)C(=O)OCC(C)(C)C2` (atropisomer, axis not shown) [Compound A439], for which the negative-log IC50 (pIC50) with NCI-H358 (K-Ras G12C) is above 8.00.
As to `CCn1c(-c2cccnc2[C@H](C)OC)c2c3cc(ccc31)-c1csc(n1)C[C@H](NC(=O)[C@H](C(C)C)N(C)C(=O)N1CC3(CC(N4CC(F)C4)C3)C1)C(=O)N1CCC[C@H](N1)C(=O)OCC(C)(C)C2` (atropisomer, axis not shown) [Compound A457], the pIC50 was 7.00 to 8.00 on NRAS Q61K and above 8.00 in the experiment on NCI-H358 (K-Ras G12C).
Regarding `CCn1c(-c2cc(N3CCN(C)CC3)cnc2[C@H](C)OC)c2c3cc(ccc31)-c1csc(n1)C[C@H](NC(=O)[C@H](C(C)C)N(C)C(=O)[C@@H]1OCC[C@@H]1c1cccnc1)C(=O)N1CCC[C@H](N1)C(=O)OCC(C)(C)C2` (atropisomer, axis not shown) [Compound A490], the pIC50 with NCI-H358 (K-Ras G12C) is above 8.00.
`CCn1c(-c2cccnc2[C@H](C)OC)c2c3cc(ccc31)-c1csc(n1)C[C@H](NC(=O)[C@H](C(C)C)N(C)C(=O)N1CC([C@@H](CO)OC)C1)C(=O)N1CCC[C@H](N1)C(=O)OCC(C)(C)C2` (atropisomer, axis not shown) [Compound A514]: the results for the pIC50 at NRAS Q61K and in the experiment with NCI-H358 (K-Ras G12C) were 7.00 to 8.00 and above 8.00, respectively.
In the case of `CCn1c(-c2cccnc2[C@H](C)OC)c2c3cc(ccc31)-c1csc(n1)C[C@H](NC(=O)[C@H](C(C)C)N(C)C(=O)N1CC([C@H](CO)OC)C1)C(=O)N1CCC[C@H](N1)C(=O)OCC(C)(C)C2` (atropisomer, axis not shown) [Compound A515], the pIC50 at NRAS Q61K was 7.00 to 8.00; in the experiment with NCI-H358 (K-Ras G12C) it was above 8.00.
The corresponding values for `CCn1c(-c2cccnc2[C@H](C)OC)c2c3cc(ccc31)-c1csc(n1)C[C@H](NC(=O)[C@H](C(C)C)N(C)C(=O)N1CC(C(=O)N3CCOCC3)C1)C(=O)N1CCC[C@H](N1)C(=O)OCC(C)(C)C2` (atropisomer, axis not shown) [Compound A543] are 7.00 to 8.00 and above 8.00.
Regarding `CCn1c(-c2cccnc2[C@H](C)OC)c2c3cc(ccc31)-c1csc(n1)C[C@H](NC(=O)[C@H](C(C)C)N(C)C(=O)N1CC(S(=O)(=O)N(C)C)C1)C(=O)N1CCC[C@H](N1)C(=O)OCC(C)(C)C2` (atropisomer, axis not shown) [Compound A551], the pIC50 at NRAS Q61K was 7.00 to 8.00; in the experiment on NCI-H358 (K-Ras G12C) it was above 8.00.
On to `CCn1c(-c2cccnc2[C@H](C)OC)c2c3cc(ccc31)-c1csc(n1)C[C@H](NC(=O)[C@H](C(C)C)N(C)C(=O)N1CCO[C@H](c3ccccc3)C1)C(=O)N1CCC[C@H](N1)C(=O)OCC(C)(C)C2` (atropisomer, axis not shown) [Compound A582], for which the pIC50 at NRAS Q61K is 7.00 to 8.00.
With `CCn1c(-c2cccnc2[C@H](C)OC)c2c3cc(ccc31)-c1csc(n1)C[C@H](NC(=O)[C@H](C(C)C)N(C)C(=O)N1CCO[C@H](CN(C)C)C1)C(=O)N1CCC[C@H](N1)C(=O)OCC(C)(C)C2` (atropisomer, axis not shown) [Compound A590], the pIC50 on NRAS Q61K was 7.00 to 8.00; in the experiment with NCI-H358 (K-Ras G12C), above 8.00.
As for `CCn1c(-c2cccnc2[C@H](C)OC)c2c3cc(ccc31)-c1csc(n1)C[C@H](NC(=O)[C@H](C(C)C)N(C)C(=O)N1CCO[C@@H](CN(C)C)C1)C(=O)N1CCC[C@H](N1)C(=O)OCC(C)(C)C2` (atropisomer, axis not shown) [Compound A591], the pIC50 on NRAS Q61K was 7.00 to 8.00.
On the same count and under the same terms, the value for `CCn1c(-c2cccnc2[C@H](C)OC)c2c3cc(ccc31)-c1csc(n1)C[C@H](NC(=O)[C@H](C(C)C)N(C)C(=O)N1CCN(C(=O)[C@@H]3CCCN3C)CC1)C(=O)N1CCC[C@H](N1)C(=O)OCC(C)(C)C2` (atropisomer, axis not shown) [Compound A596] was 7.00 to 8.00; that for `CCn1c(-c2cccnc2[C@H](C)OC)c2c3cc(ccc31)-c1csc(n1)[C@@H](OC)[C@H](NC(=O)[C@H](C(C)C)N(C)C(=O)N(C)C)C(=O)N1CCC[C@H](N1)C(=O)OCC(C)(C)C2` (atropisomer, axis not shown) [Compound A598, (2S)—N-((6^3S,3S,4S,Z)-1^1-ethyl-3-methoxy-1^2-(2-((S)-1-methoxyethyl)pyridin-3-yl)-10,10-dimethyl-5,7-dioxo-6^1,6^2,6^3,6^4,6^5,6^6-hexahydro-1^1H-8-oxa-2(4,2)-thiazola-1(5,3)-indola-6(1,3)-pyridazinacycloundecaphane-4-yl)-3-methyl-2-(1,3,3-trimethylureido)butanamide] was 7.00 to 8.00.
Take `CCn1c(-c2cccnc2[C@H](C)OC)c2c3cc(ccc31)-c1csc(n1)C[C@H](NC(=O)[C@H](C(C)C)N(C)C(=O)N1CCO[C@@H](c3ccccc3)C1)C(=O)N1CCC[C@H](N1)C(=O)OCC(C)(C)C2` (atropisomer, axis not shown) [Compound A600]: the pIC50 at NRAS Q61K is 7.00 to 8.00.
For `CCn1c(-c2cccnc2[C@H](C)OC)c2c3cc(ccc31)-c1csc(n1)C[C@H](NC(=O)[C@H](C(C)C)N(C)C(=O)N1CCN(C(=O)C3CC3)CC1)C(=O)N1CCC[C@H](N1)C(=O)OCC(C)(C)C2` (atropisomer, axis not shown) [Compound A607], the pIC50 with NCI-H358 (K-Ras G12C) is above 8.00.
As for `CCn1c(-c2cccnc2[C@H](C)OC)c2c3cc(ccc31)-c1cc(O)cc(c1)C[C@H](NC(=O)C1CCC3C1C3(F)F)C(=O)N1CCC[C@H](N1)C(=O)OCC(C)(C)C2` (some centres unmarked) [Compound A181], the pIC50 at NRAS Q61R was below 5.00.
Compound `CCn1c(-c2cccnc2[C@H](C)OC)c2c3cc(ccc31)-c1csc(n1)C[C@H](NC(=O)[C@H](C(C)C)N(C)C(=O)N1CCN3CCOCC3C1)C(=O)N1CCC[C@H](N1)C(=O)OCC(C)(C)C2` (some centres unmarked) [Compound A296] showed a pIC50 in the experiment with NCI-H358 (K-Ras G12C) above 8.00.
The same measure, in the same setting: the value for `CO[C@@H](C)c1ncccc1-c1c2c3cc(ccc3n1CC(F)(F)F)-c1csc(n1)C[C@H](NC(=O)[C@H](C(C)C)N(C)C(=O)N1CC(N(C)C)C1)C(=O)N1CCC[C@H](N1)C(=O)OCC(C)(C)C2` [Compound A303] was above 8.00.
In the case of `CCn1c(-c2cccnc2[C@H](C)OC)c2c3cc(ccc31)-c1cc(O)cc(c1)C[C@H](NC(=O)[C@H](C(C)C)N(C)C(=O)C1CCC3(CCOC3)O1)C(=O)N1CCC[C@H](N1)C(=O)OCC(C)(C)C2` (some centres unmarked) [Compound A409], at NRAS Q61K, the pIC50 is 7.00 to 8.00.
For `CCn1c(-c2cccnc2[C@H](C)OC)c2c3cc(ccc31)-c1csc(n1)C[C@H](NC(=O)[C@H](C(C)C)N(C)C(=O)N1CC(C#N)(N(C)C)C1)C(=O)N1CCC[C@H](N1)C(=O)OCC(C)(C)C2` [Compound A452], the pIC50 on NRAS Q61K is 7.00 to 8.00.
Turning to `CCn1c(-c2cccnc2[C@H](C)OC)c2c3cc(ccc31)-c1csc(n1)C[C@H](NC(=O)[C@H](C(C)C)N(C)C(=O)N1C3COCC1C3)C(=O)N1CCC[C@H](N1)C(=O)OCC(C)(C)C2` [Compound A540], on NRAS Q61K, the pIC50 is 7.00 to 8.00.
